Experimental data: article PMC7413254 (Nature Communications, 2020)
Values joined by “and” are separate entries in the source; they are usually repeats but may differ in a detail not shown here. Equal entries are not always repeated. Where two headings read alike, the source gives them in different places.

What was measured:
[1] = system: PfCRT; test: Test of solutes as potential co-substrates for influx of VF-6 via PfCRT into the oocyte; assay type: cell-based, Plasmodium falciparum; parameters: key: X: Compounds that have been tested as potential co-substrates but are not required for influx of VF-6 via PfCRT into the oocyte; conditions: X = tested
[2] = molecular target: PfCRT^3D7 (Plasmodium falciparum, UniProt Q8IBZ9); test: cell-based
PfCRT^3D7, sequence (Q8IBZ9 59-398): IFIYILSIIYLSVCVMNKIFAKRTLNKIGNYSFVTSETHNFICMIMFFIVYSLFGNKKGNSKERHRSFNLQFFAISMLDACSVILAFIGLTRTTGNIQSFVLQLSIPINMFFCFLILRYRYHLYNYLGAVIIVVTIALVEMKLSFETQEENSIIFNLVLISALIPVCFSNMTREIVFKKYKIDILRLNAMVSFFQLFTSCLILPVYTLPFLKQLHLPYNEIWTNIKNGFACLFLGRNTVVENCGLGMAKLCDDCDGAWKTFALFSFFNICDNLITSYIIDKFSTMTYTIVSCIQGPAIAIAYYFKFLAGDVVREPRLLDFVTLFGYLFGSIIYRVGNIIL
Protocol: (§1) The characterisation of [^3H]VF-6 transport via 23 different field and laboratory-derived isoforms of PfCRT was undertaken with oocytes two days post-cRNA-injection (Figs. 3a–j, 4; Supplementary Fig. 2). The oocytes were injected with 25 nL of ND96 buffer (pH 5.5) supplemented with [^3H]VF-6 and unlabelled VF-6 to achieve estimated intracellular concentrations of 1.4 and 200 μM, respectively. Ten oocytes that had resealed at the injection site were transferred to a 5 mL polystyrene round bottom tube (In Vitro Technologies) and washed with 3.5 mL of ND96 buffer before being transferred to separate wells of a white 96-well plate (PerkinElmer). This treatment served to establish the amount of radioactivity within the oocytes immediately prior to the commencement of the transport assay. Another 10 resealed oocytes were transferred to a 5 mL tube and washed with 3.5 mL of ND96 buffer. […] The assay was terminated by removing the reaction buffer with a pipette and washing the oocytes twice with 3.5 mL of ice-cold ND96 buffer. Each oocyte was transferred to a separate well of a white 96-well plate. The oocytes were lysed by the addition of 20 μL of 10% (w/v) SDS and overnight incubation at room temperature. The lysed oocyte was then combined with 150 μL of MicroScint-40 microscintillant (PerkinElmer), the plate covered with a TopSeal-A (PerkinElmer), and the radioactivity measured with a MicroBeta^2 microplate liquid scintillation analyser (PerkinElmer). VF-6 transport was calculated by subtracting the amount of radioactivity (measured in counts per minute) present within the oocytes at the end of the incubation from that measured in the oocytes sampled immediately before the commencement of the assay. The pH-dependence of transport (Fig. 3c) was determined by injecting the oocytes with [^3H]VF-6 suspended in 25 nL ND96 buffer adjusted to pH 5.0, 5.5, 6.0 or 7.0, which corresponded to the injection of 2.5–250 fmol of H^+. The dependence of [^3H]VF-6 transport on Na^+ or Cl^− was examined by injecting the oocytes with [^3H]VF-6 suspended in the control ND96 buffer (pH 5.5) or a version of this buffer that lacked either Na^+ or Cl^− (Supplementary Fig. 2). […] The dependence of peptide transport on Ca^2+ was determined by injecting the oocytes with [^3H]VF-6 suspended in ND96 buffers that contained different concentrations of Ca^2+ (0–5 mM; Supplementary Fig. 2). […] The dependence of PfCRT-mediated transport on the membrane potential was examined by using (1) Na^+ ionophore III in conjunction with the Na^+ gradients listed in Supplementary Data 7 and (2) Cl^− ionophore III in conjunction with the Cl^− gradients listed in Supplementary Data 7 to clamp the membrane potential of the oocyte from −80 to +80 mV. […] The kinetic parameters for VF-6 transport via different isoforms of PfCRT (Figs. 3e and 4a) were determined in SigmaPlot Windows Version 11.0 by a least-squares fit of the Michaelis–Menten equation to the data.
(§2) A subset of assays measured the ability of solutes known to interact with PfCRT to either cis-inhibit, trans-inhibit or trans-stimulate [^3H]VF-6 transport. These experiments involved adding these solutes to either the cis- or trans-side of the membrane relative to [^3H]VF-6. […] At least five independent experiments were performed (on different days and using oocytes from different frogs), and within each experiment measurements were made from ten oocytes per treatment.

[3] = molecular target: PfCRT^Dd2 (Plasmodium falciparum, UniProt Q9N623, A220S/I356T/K76T/M74I/N326S/N75E/Q271E/R371I); test: cell-based; conditions: trans-inhibition, treatment 45 mM
PfCRT^Dd2, sequence (Q9N623 whole entry A220S/I356T/K76T/M74I/N326S/N75E/Q271E/R371I): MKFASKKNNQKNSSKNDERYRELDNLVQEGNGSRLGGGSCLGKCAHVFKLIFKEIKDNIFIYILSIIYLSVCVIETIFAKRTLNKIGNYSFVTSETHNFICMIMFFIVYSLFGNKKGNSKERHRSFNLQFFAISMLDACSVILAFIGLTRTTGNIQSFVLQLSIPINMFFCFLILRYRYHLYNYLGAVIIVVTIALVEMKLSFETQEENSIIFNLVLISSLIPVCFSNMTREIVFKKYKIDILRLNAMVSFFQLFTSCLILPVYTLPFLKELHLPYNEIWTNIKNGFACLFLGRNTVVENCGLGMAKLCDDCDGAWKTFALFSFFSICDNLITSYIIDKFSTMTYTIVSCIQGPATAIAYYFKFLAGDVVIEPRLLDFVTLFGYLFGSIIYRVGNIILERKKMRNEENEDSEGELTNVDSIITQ
Protocol: as §1, §2

[4] = molecular target: PfCRT^Ecu1110 (Plasmodium falciparum, UniProt Q9N623, A220S/I356L/K76T/N326D); test: cell-based; conditions: trans-inhibition, treatment 45 mM
PfCRT^Ecu1110, sequence (Q9N623 whole entry A220S/I356L/K76T/N326D): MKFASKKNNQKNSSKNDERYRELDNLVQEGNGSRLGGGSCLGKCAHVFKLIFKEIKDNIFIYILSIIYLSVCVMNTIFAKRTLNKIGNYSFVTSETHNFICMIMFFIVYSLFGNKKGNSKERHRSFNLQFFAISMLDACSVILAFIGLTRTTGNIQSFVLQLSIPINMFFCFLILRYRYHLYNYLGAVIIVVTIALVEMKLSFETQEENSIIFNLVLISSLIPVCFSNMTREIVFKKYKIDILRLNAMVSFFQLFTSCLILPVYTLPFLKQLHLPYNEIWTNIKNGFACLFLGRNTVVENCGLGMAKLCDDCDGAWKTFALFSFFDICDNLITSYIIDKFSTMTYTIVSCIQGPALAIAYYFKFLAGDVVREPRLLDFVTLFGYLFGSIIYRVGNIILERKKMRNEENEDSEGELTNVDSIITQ
Protocol: as §1, §2

[5] = molecular target: T1, PfNT1 (Plasmodium falciparum, UniProt Q8IDM6); test: [3H]VF-6 transport (efflux) from injected Xenopus oocytes; assay type: cell-based; conditions: trans-inhibition, treatment 45 mM
T1 construct: expressed in transfected cells; host or cells: Xenopus laevis oocytes (stage V-VI), cRNA-injected
T1 sequence (Q8IDM6 whole entry): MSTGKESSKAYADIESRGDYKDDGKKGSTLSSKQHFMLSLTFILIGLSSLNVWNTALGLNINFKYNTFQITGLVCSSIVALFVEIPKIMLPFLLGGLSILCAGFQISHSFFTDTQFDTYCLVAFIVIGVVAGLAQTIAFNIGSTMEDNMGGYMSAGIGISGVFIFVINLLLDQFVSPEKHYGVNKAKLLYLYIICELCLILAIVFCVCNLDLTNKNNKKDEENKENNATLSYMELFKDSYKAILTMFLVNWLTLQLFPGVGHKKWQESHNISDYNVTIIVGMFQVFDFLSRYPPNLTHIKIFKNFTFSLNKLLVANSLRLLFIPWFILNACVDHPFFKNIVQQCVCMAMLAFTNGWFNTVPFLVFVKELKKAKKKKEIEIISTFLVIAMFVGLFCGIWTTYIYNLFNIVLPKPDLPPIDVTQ

How did the “Tested as potential co-substrate but not required for influx of VF-6 via PfCRT into the oocyte” value [1] turn out when `CSCC[C@H](N)C(=O)O` [L-methionine] was run?
Its value is “X”.

`N[C@@H](Cc1ccccc1)C(=O)O` [L-phenylalanine] was tested. Which “Tested as potential co-substrate but not required for influx of VF-6 via PfCRT into the oocyte” value [1] did it give?
The value was “X”.

With `N[C@@H](CO)C(=O)O` [L-serine] as the compound, how does the “Tested as potential co-substrate but not required for influx of VF-6 via PfCRT into the oocyte” value [1] read?
The value was “X”.

For `C[C@@H](O)[C@H](N)C(=O)O` [L-threonine], which “Tested as potential co-substrate but not required for influx of VF-6 via PfCRT into the oocyte” value [1] is on record?
The value was “X”.

Which “Tested as potential co-substrate but not required for influx of VF-6 via PfCRT into the oocyte” value [1] does the source give for `N[C@@H](Cc1c[nH]c2ccccc12)C(=O)O` [L-tryptophan] here?
The value was “X”.

How did the “Tested as potential co-substrate but not required for influx of VF-6 via PfCRT into the oocyte” value [1] turn out when `N[C@@H](Cc1ccc(O)cc1)C(=O)O` [L-tyrosine] was run?
Its value is “X”.

How did the “Tested as potential co-substrate but not required for influx of VF-6 via PfCRT into the oocyte” value [1] turn out when `CC(C)[C@H](N)C(=O)O` [L-valine] was run?
Its value is “X”.

How did the “Tested as potential co-substrate but not required for influx of VF-6 via PfCRT into the oocyte” value [1] turn out when PVNF [PF-4] was run?
Its value is “X”.

What does the source list for PVNF [VF-6-derived peptide]?
[3H]VF-6 transport, PfCRT3D7 (% PfCRT3D7 control) [2]: 25.32 % PfCRT3D7 control and 24.64 % PfCRT3D7 control and 25.23 % PfCRT3D7 control and 25.9 % PfCRT3D7 control and 23.94 % PfCRT3D7 control; [3H]VF-6 transport, PfCRTDd2 (% PfCRT3D7 control) ([3]; Experiment 1): 8.23 % PfCRT3D7 control; [3H]VF-6 transport, PfCRTDd2 (% PfCRT3D7 control) ([3]; Experiment 2): 8.92 % PfCRT3D7 control; [3H]VF-6 transport, PfCRTDd2 (% PfCRT3D7 control) ([3]; Experiment 3): 7.3 % PfCRT3D7 control; [3H]VF-6 transport, PfCRTDd2 (% PfCRT3D7 control) ([3]; Experiment 4): 7.53 % PfCRT3D7 control; [3H]VF-6 transport, PfCRTDd2 (% PfCRT3D7 control) ([3]; Experiment 5): 7.44 % PfCRT3D7 control; [3H]VF-6 transport, PfCRTEcu1110 (% PfCRT3D7 control) ([4]; Experiment 1): 10.55 % PfCRT3D7 control; [3H]VF-6 transport, PfCRTEcu1110 (% PfCRT3D7 control) ([4]; Experiment 2): 12.46 % PfCRT3D7 control; [3H]VF-6 transport, PfCRTEcu1110 (% PfCRT3D7 control) ([4]; Experiment 3): 11.35 % PfCRT3D7 control; [3H]VF-6 transport, PfCRTEcu1110 (% PfCRT3D7 control) ([4]; Experiment 4): 10.58 % PfCRT3D7 control; [3H]VF-6 transport, PfCRTEcu1110 (% PfCRT3D7 control) ([4]; Experiment 5): 10.07 % PfCRT3D7 control; [3H]VF-6 transport, PfNT1 (% PfCRT3D7 control) ([5]; Experiment 1): 4.26 % PfCRT3D7 control; [3H]VF-6 transport, PfNT1 (% PfCRT3D7 control) ([5]; Experiment 2): 4.27 % PfCRT3D7 control; [3H]VF-6 transport, PfNT1 (% PfCRT3D7 control) ([5]; Experiment 3): 4.41 % PfCRT3D7 control; [3H]VF-6 transport, PfNT1 (% PfCRT3D7 control) ([5]; Experiment 4): 3.17 % PfCRT3D7 control; [3H]VF-6 transport, PfNT1 (% PfCRT3D7 control) ([5]; Experiment 5): 4.26 % PfCRT3D7 control

How did the “[3H]VF-6 transport, PfCRT3D7 (% PfCRT3D7 control)” value ([2]; trans-inhibition, treatment 45 mM, Experiment 1) turn out when VDPVN [VF-6-derived peptide] was run?
The value was 20.24 % PfCRT3D7 control.

And the “[3H]VF-6 transport, PfCRT3D7 (% PfCRT3D7 control)” value ([2]; trans-inhibition, treatment 45 mM, Experiment 2)?
The value was 19.6 % PfCRT3D7 control.

What about the “[3H]VF-6 transport, PfCRT3D7 (% PfCRT3D7 control)” value ([2]; trans-inhibition, treatment 45 mM, Experiment 3) of the same compound?
Its value is 22.64 % PfCRT3D7 control.

What about the “[3H]VF-6 transport, PfCRT3D7 (% PfCRT3D7 control)” value ([2]; trans-inhibition, treatment 45 mM, Experiment 4) of the same compound?
Its value is 22.05 % PfCRT3D7 control.

And the “[3H]VF-6 transport, PfCRT3D7 (% PfCRT3D7 control)” value ([2]; trans-inhibition, treatment 45 mM, Experiment 5)?
Its value is 19.48 % PfCRT3D7 control.

What about the “[3H]VF-6 transport, PfCRTDd2 (% PfCRT3D7 control)” value ([3]; Experiment 1) of the same compound?
The value was 7.28 % PfCRT3D7 control.

And the “[3H]VF-6 transport, PfCRTDd2 (% PfCRT3D7 control)” value ([3]; Experiment 2)?
Its value is 7.49 % PfCRT3D7 control.

And the “[3H]VF-6 transport, PfCRTDd2 (% PfCRT3D7 control)” value ([3]; Experiment 3)?
Its value is 7.54 % PfCRT3D7 control.

What about the “[3H]VF-6 transport, PfCRTDd2 (% PfCRT3D7 control)” value ([3]; Experiment 4) of the same compound?
The value was 7.59 % PfCRT3D7 control.

What about the “[3H]VF-6 transport, PfCRTDd2 (% PfCRT3D7 control)” value ([3]; Experiment 5) of the same compound?
Its value is 7.33 % PfCRT3D7 control.

And the “[3H]VF-6 transport, PfCRTEcu1110 (% PfCRT3D7 control)” value ([4]; Experiment 1)?
The value was 6.34 % PfCRT3D7 control.

What about the “[3H]VF-6 transport, PfCRTEcu1110 (% PfCRT3D7 control)” value ([4]; Experiment 2) of the same compound?
The value was 5.74 % PfCRT3D7 control.

What about the “[3H]VF-6 transport, PfCRTEcu1110 (% PfCRT3D7 control)” value ([4]; Experiment 3) of the same compound?
Its value is 6.34 % PfCRT3D7 control.

And the “[3H]VF-6 transport, PfCRTEcu1110 (% PfCRT3D7 control)” value ([4]; Experiment 4)?
The value was 6.94 % PfCRT3D7 control.

And the “[3H]VF-6 transport, PfCRTEcu1110 (% PfCRT3D7 control)” value ([4]; Experiment 5)?
Its value is 6.25 % PfCRT3D7 control.

What about the “[3H]VF-6 transport, PfNT1 (% PfCRT3D7 control)” value ([5]; Experiment 1) of the same compound?
Its value is 3.27 % PfCRT3D7 control.

What about the “[3H]VF-6 transport, PfNT1 (% PfCRT3D7 control)” value ([5]; Experiment 2) of the same compound?
Its value is 3.32 % PfCRT3D7 control.

And the “[3H]VF-6 transport, PfNT1 (% PfCRT3D7 control)” value ([5]; Experiment 3)?
Its value is 3.39 % PfCRT3D7 control.

What about the “[3H]VF-6 transport, PfNT1 (% PfCRT3D7 control)” value ([5]; Experiment 4) of the same compound?
Its value is 3.68 % PfCRT3D7 control.

And the “[3H]VF-6 transport, PfNT1 (% PfCRT3D7 control)” value ([5]; Experiment 5)?
The value was 3.32 % PfCRT3D7 control.
